Data set [1] can be described thus: Cytotoxicity (MTT) assay, Caco-2 cells. Format: cell-based. To be noted: human, 1–500 µM, read-out: viability compared to the control. Here is the method: (§1) Caco-2 and HEK93 cells were incubated in a 96-well microplate (10^4 cells per well) with different concentrations (1, 10, 50, 100, and 500 µM) of EMHPS for 24 h. At the end of incubation, 20 μL of 0.5% 3-(4,5-dimethylthiazol-2-yl)-2,5-diphenyltetrazolium bromide (MTT) was added to each well, followed by a 2 h incubation. The MTT solution was then aspirated and 200 μL of […] dimethyl sulfoxide solution (PanEko) was added. Absorption was recorded after 10 min at 530 nm with a Stat Fax 2100 plate reader (Awareness Technology, Palm City, FL, USA). The survival of cells in the presence of EMHPS was calculated according to the equation: (optical density (OD) of test wells − OD of medium)/(OD of control wells − OD of medium) × 100%, where OD is the optical density.

Data set [2] is described as follows: Cytotoxicity (MTT) assay, HEK293 cells. Particulars: human, 1–500 µM, read-out: viability compared to the control. Format: cell-based. Here is the method: as §1
Data set [3] has as its system SLCO1B1. As to the kind of experiment: Effect on expression of SLCO1B1 in HepG2 cells (Western blot). It counts as cell-based, human. Particulars: 1, 10, and 100 µM, 24 h incubation. Here is the method:
The HepG2 cell line was purchased from American Type Culture Collection (Institute of Cytology, Russian Academy of Sciences, Moscow, Russia). Cells were cultured in Dulbecco’s modified Eagle’s medium containing 15% fetal bovine serum, 2 mM l-glutamine, 100 units/mL penicillin G, and 100 μg/mL streptomycin in an atmosphere of 5% CO2 at 37 °C on a 24-well plate until a monolayer was formed. HepG2 cells were used to test the effect of EMHPS on the expression of SLCO1B1.
To test the effect of EMHPS on the expression of ABCB1 and SLCO1B1, Caco-2 or HepG2 cells, respectively, were cultured on a 6-well plate. EMHPS was used at concentrations of 1, 10, and 100 µM, and the duration of exposure was 24 h. After the incubation, the cells were removed from the surface of the wells with a trypsin–EDTA solution (0.25% trypsin and 0.2% EDTA, Sigma-Aldrich, St. Louis, MO, USA).
The expression levels of ABCB1 and SLCO1B1 were analyzed via Western blot.
Cells were lysed with NP40 Cell Lysis Buffer Thermo (Thermo Fisher Scientific) with protease inhibitors (Sigma Aldrich, St. Louis, MO, USA) for 30 min at +4 °C with constant stirring at a rate of 10^7 cells per 100 µL of buffer. Protein concentrations were quantified with the Pierce Coomassie Plus Assay Kit (Thermo Fisher, Rockford, IL, USA). […]
For orientation: In western blotting, separated proteins are transferred to a membrane and probed.

Data set [4] concerns the target ABCB1 (Homo sapiens, UniProt P08183). As to the kind of experiment: EMHPS transport through the Caco-2 cells monolayer (ABCB1 substrate test). It counts as in vitro ADME. Also noted: Caco-2 cells were used to test the effect of EMHPS on the expression and activity of ABCB1; endogenous in cells; host or cells: Caco-2. Here is the method:
The medium was changed every 2–3 days.
The medium in chambers was removed and the cell monolayers were washed twice in warm (37 °C) transport medium (Hanks‚ balanced salt solution containing 10 mM HEPES and 1% dimethylsulfoxide (DMSO)). […] Chamber–recipient was filled with transport medium without EMHPS. At 60, 120, and 180 min, 100 μL samples were taken from the recipient chamber and the drug concentration was analyzed. EMHPS transport was assessed in the absorptive (apical to basolateral, a-b) and secretory (b-a) directions.
The apparent permeability (Papp) of EMHPS through Caco-2 monolayers was calculated using Equation (1). (1) Papp=dQ/dt×1/A×C0
A, membrane surface area (1.12 cm^2); C0, EMHPS concentration at t = 0 µM; and dQ/dt, amount of EMHPS transported within a given time period µM/s.
The ratio of Papp (b-a) and Papp (a-b), known as the efflux ratio (ER), was calculated in accordance with the following Equation (2):(2) ER=Papp b-a/Papp a-b
The ER was used as a marker for permeability through Caco-2 cell monolayers.
EMHPS concentrations in the transport medium (transport experiments with Caco-2 cells) were analyzed using HPLC-UV (HPLC chromatograph Stayer) with UV detection at a wavelength of 296 nm. The sample (50 µL) was diluted in 150 µL of the mobile phase, and 100 µL of the resulting solution was injected into the chromatograph. In the analysis, a Beckman Coulter 4.6 × 150 mm, 5 μm chromatographic column was used.
The separation temperature was 35 °C. The flow rate was 0.8 mL/min. Mobile phase composition: acetonitrile and water in a 20:80 v/v ratio with the addition of acetic acid to pH 3.25. The retention time of EMHPS under these conditions was 5.5 min.
A general note: Caco-2 cells form a polarised layer with tight junctions and transporters.

[5] abbreviates: human, EMHPS 10 µM, Caco-2 monolayer, M ± SD.
[6] abbreviates: human, EMHPS 100 µM, Caco-2 monolayer, M ± SD.
Setting [7] is: human, EMHPS 250 µM, Caco-2 monolayer, M ± SD.

The record followed here is PMC10674565 (Pharmaceuticals, 2023).

Chain of ABCB1 (P08183 whole entry): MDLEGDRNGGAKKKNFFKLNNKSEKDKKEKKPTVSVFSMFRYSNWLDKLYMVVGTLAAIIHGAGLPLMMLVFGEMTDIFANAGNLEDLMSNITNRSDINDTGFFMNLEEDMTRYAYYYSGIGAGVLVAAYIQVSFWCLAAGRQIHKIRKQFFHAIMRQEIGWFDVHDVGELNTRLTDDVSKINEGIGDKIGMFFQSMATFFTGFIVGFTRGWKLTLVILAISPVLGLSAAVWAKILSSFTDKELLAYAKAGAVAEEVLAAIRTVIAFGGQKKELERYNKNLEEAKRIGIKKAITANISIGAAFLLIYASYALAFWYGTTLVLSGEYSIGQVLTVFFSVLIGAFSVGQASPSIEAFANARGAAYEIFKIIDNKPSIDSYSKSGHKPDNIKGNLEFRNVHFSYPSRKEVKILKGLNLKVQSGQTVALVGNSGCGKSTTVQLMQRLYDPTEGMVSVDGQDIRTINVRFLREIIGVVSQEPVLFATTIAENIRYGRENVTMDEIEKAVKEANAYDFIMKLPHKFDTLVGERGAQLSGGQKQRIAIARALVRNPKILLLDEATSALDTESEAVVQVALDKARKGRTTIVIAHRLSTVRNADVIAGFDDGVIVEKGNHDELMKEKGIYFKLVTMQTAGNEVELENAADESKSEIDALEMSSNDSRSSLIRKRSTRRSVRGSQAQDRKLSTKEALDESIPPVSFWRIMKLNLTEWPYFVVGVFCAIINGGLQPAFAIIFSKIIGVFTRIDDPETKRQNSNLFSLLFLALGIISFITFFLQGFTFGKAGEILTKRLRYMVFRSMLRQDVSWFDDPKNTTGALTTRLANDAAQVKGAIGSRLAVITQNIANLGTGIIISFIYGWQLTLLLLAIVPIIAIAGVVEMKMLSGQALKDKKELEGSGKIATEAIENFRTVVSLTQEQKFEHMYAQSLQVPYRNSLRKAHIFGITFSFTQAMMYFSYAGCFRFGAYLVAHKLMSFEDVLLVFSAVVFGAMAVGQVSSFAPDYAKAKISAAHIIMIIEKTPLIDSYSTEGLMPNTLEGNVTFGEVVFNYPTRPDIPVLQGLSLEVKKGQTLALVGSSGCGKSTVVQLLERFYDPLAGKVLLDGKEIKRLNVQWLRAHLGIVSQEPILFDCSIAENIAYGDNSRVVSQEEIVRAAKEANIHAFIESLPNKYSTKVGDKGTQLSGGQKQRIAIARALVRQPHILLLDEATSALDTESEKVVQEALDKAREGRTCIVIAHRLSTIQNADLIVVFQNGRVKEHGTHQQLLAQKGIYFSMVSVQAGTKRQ

As usually defined, the viability is a read-out of living cells in per cent, often relative to untreated cells. Usually Papp A→B stands for the apparent permeability from the apical to the basolateral side of a cell layer. A low value points to poor permeation. One may read the Papp B→A as how fast a substance crosses the layer from the basolateral side. As to `CCc1nc(C)ccc1O.O=C(O)CCC(=O)O` [EMHPS, 2-Ethyl-6-methyl-3-hydroxypyridine succinate], the viability at 24 h in data set [1] fell in the range of 85 to 105%. Moreover, the viability at 24 h in data set [2] lay in the range of 85 to 105%. For the same compound, in data set [3], the “effect on expression of SLCO1B1” value was “did not significantly affect”. For the same compound, in data set [4] (Caco-2 monolayer, 10, 100, and 250 µM), the “substrate of ABCB1” value is on record as “not a substrate of ABCB1”. Also, in data set [4] (setting [5]), the Papp A→B at 180 min, 10 µM was found to be 7.66 ×10⁻⁶ cm/s and the Papp B→A at 180 min, 10 µM turned out to be 7.56 ×10⁻⁶ cm/s. Besides, in data set [4] (human, EMHPS 10 µM, Caco-2 monolayer, M ± SD, read-out: ER (Papp b-a/Papp a-b)), the efflux ratio at 180 min, 10 µM was determined as 0.99 ± 0.323. Besides, in data set [4] (setting [6]), the Papp A→B at 180 min, 100 µM is 7.05 ×10⁻⁶ cm/s and the Papp B→A at 180 min, 100 µM was determined as 6.63 ×10⁻⁶ cm/s. In data set [4] (human, EMHPS 100 µM, Caco-2 monolayer, M ± SD, read-out: ER (Papp b-a/Papp a-b)), the efflux ratio at 180 min, 100 µM was determined as 0.94 ± 0.039. In addition, in data set [4] (setting [7]), the Papp A→B at 180 min, 250 µM turned out to be 22.3 ×10⁻⁶ cm/s and the Papp B→A at 180 min, 250 µM was 16.5 ×10⁻⁶ cm/s. For the same compound, in data set [4] (human, EMHPS 250 µM, Caco-2 monolayer, M ± SD, read-out: ER (Papp b-a/Papp a-b)), the efflux ratio at 180 min, 250 µM was 0.75 ± 0.26. For the same compound, in data set [4] (human, all concentrations (10, 100, and 250 µM), Caco-2 monolayer, read-out: ER (Papp b-a/Papp a-b)), the efflux ratio at 180 min is roughly 1.
